The assay relates to Acinetobacter baumannii ATCC17978. Briefly: Antimicrobial susceptibility testing: 90% growth inhibitory concentration (IC90) determination, Iso-Sensitest broth. Format: cell-based. The gist of the method:
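A. baumannii ATCC17978 grown in Iso-Sensitest broth across 10 compound concentrations at 35±2 °C.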

[1] abbreviates: Acinetobacter baumannii, ATCC17978, 16 h, read-out: ATCC17978 IC90, 90% growth inhibitory concentration, Acinetobacter baumannii ATCC17978, Iso-Sensitest broth, OD 600 nm over 16 h.
[2] abbreviates: 90% growth inhibitory concentration, Acinetobacter baumannii ATCC17978, Iso-Sensitest broth, OD 600 nm over 16 h, read-out: ATCC17978 IC90.

Each structure is given as a SMILES string. Structures can show the parent of a compound that is named as a salt. Where two headings read alike, the source gives them in different places.

Take `COc1ccc(-c2cnc3c(Nc4ccc(C(=O)N5CCN(C(=O)NCCN)CC5)c(C)c4)nccn23)c(F)c1F` [Example 475, N-(2-aminoethyl)-4-[4-[[3-(2,3-difluoro-4-methoxyphenyl)imidazo[1,2-a]pyrazin-8-yl]amino]-2-methylbenzoyl]piperazine-1-carboxamide; formic acid]: the IC90 under setting [1] worked out at 97 nM.
Still for that read-out and setting: next, `Cc1cc(Nc2nccn3c(-c4ccc(OC(F)F)cc4)cnc23)ccc1C(=O)N1CCC(C(=O)N2C3CCC2CNC3)CC1` [Example 318, [4-(3,8-diazabicyclo[3.2.1]octane-8-carbonyl)piperidin-1-yl]-[4-[[3-[4-(difluoromethoxy)phenyl]imi-dazo[1,2-a]pyrazin-8-yl]amino]-2-methylphenyl]methanone; hy-drochloride]: 250 nM; `Cc1cc(Nc2nccn3c(-c4ccc(OC(F)F)cc4)cnc23)ccc1C(=O)N1CCN(C(=O)[C@@H]2CCNC2)CC1` [Example 486, [4-[[3-[4-(difluoromethoxy)phenyl]imi-dazo[1,2-a]pyrazin-8-yl]amino]-2-methylphenyl]-[4-[(3R)-pyrrolidine-3-carbonyl]piperazin-1-yl]methanone; hydrochloride]: 190 nM.
For the compound `Cc1cc(Nc2nccn3c(-c4ccc(OCC#N)c(F)c4F)cnc23)ccc1C(=O)N1CCN(C(=O)N2CCN[C@H](C(=O)O)C2)CC1` [Example 442, (2S)-4-[4-[4-[[3-[4-(cyanomethoxy)-2,3-difluorophenyl]imidazo[1,2-a]pyrazin-8-yl]amino]-2-methylbenzoyl]piperazine-1-carbonyl]piperazine-2-carboxylic acid], the IC90 under setting [2] amounted to 1200 nM.
On to `COc1ccc(-c2cnc3c(Nc4ccc(C(=O)N5CCN(C(=O)[C@@H]6C[C@@H](OC(=O)[C@@H]7CCCN7)CN6)CC5)c(C)c4)nccn23)c(F)c1F` [Example 551, [(3R,5S)-5-[4-[4-[[3-(2,3-difluoro-4-methoxy-phenyl)imidazo[1,2-a]pyrazin-8-yl]amino]-2-methyl-benzoyl]piperazine-1-carbonyl]pyrrolidin-3-yl] pyrrolidine-2-carboxylate formate], for which the IC90 under setting [1] was 196 nM.
On to `Cc1cc(Nc2nccn3c(-c4ccc(OCC#N)c(F)c4Cl)cnc23)ccc1C(=O)N1CCN(C(=O)N2CCO[C@H](CN)C2)CC1` [Example 157, 2-[4-[8-[4-[4-[(2R)-2-(aminomethyl)morpholine-4-carbonyl]piperazine-1-carbonyl]-3-methyl-anilino]imidazo[1,2-a]pyrazin-3-yl]-3-chloro-2-fluoro-phenoxy]acetonitrile formate], for which the IC90 under setting [2] was found to be 92 nM.
In the case of `CC[C@@H](N)C(=O)N1CCN(C(=O)c2ccc(Nc3nccn4c(-c5ccc(OC(F)F)cc5)cnc34)cc2C)CC1` [Example 261, (2R)-2-amino-1-[4-[4-[[3-[4-(difluoromethoxy)phenyl]imi-dazo[1,2-a]pyrazin-8-yl]amino]-2-methylbenzoyl]piperazin-1-yl]butan-1-one; hydrochloride], the IC90 under setting [1] is 1000 nM.
Turning to `COc1ccc(-c2cnc3c(Nc4ccc(C(=O)N5CCC(C(=O)NCC6(O)CNC6)CC5)c(C)c4)nccn23)cc1F` [Example 58, 1-(4-((3-(3-fluoro-4-methoxyphenyl)imidazo[1,2-a]pyrazin-8-yl)amino)-2-methylbenzoyl)-N-((3-hydroxyazetidin-3-yl)methyl)piperidine-4-carboxamide 2,2,2-trifluoroacetate], the IC90 under setting [1] was 250 nM.
As for `COc1ccc(-c2cnc3c(Nc4ccc(C(=O)N5CCN(C(=O)[C@H](CCCN)NC(=O)CC[C@H](N)C(=O)O)CC5)c(C)c4)nccn23)c(F)c1F` [Example 533, (2S)-2-amino-5-[[(2S)-5-amino-1-[4-[4-[[3-(2,3-difluoro-4-methoxyphenyl)imidazo[1,2-a]pyrazin-8-yl]amino]-2-methylbenzoyl]piperazin-1-yl]-1-oxopentan-2-yl]amino]-5-oxopentanoic acid; hydrochloride], under setting [1], the IC90 was found to be 1500 nM.
In the case of `COc1ccc(-c2cnc3c(Nc4ccc(C(=O)N5CCN(C(=O)[C@@H]6CCCN6)CC5)c(C)c4)nccn23)cc1F` [Example 178, [4-[[3-(3-fluoro-4-methoxy-phenyl)imidazo[1,2-a]pyrazin-8-yl]amino]-2-methyl-phenyl]-[4-[(2S)-pyrrolidine-2-carbonyl]piperazin-1-yl]methanone hydrochloride], the IC90 under setting [2] was determined as 89 nM.
On the same count and under the same terms, as for `COc1ccc(-c2cnc3c(Nc4ccc(C(=O)N5CCN(C(=O)C6C7CCC6CNC7)CC5)c(C)c4)nccn23)c(F)c1F` (stereo not drawn) [Example 205, [4-(3-azabicyclo[3.2.1]octane-8-carbonyl)piperazin-1-yl]-[4-[[3-(2,3-difluoro-4-methoxy-phenyl)imidazo[1,2-a]pyrazin-8-yl]amino]-2-methyl-phenyl]methanone hydrochloride], the figure is 110 nM.
Same read-out and setting: next, `COc1ccc(-c2cnc3c(Nc4ccc(C(=O)N5CCC6(CNC6)C5)c(C)c4)nccn23)cc1F` [Example 417, 2,6-diazaspiro[3.4]octan-6-yl-[4-[[3-(3-fluoro-4-methoxyphenyl)imidazo[1,2-a]pyrazin-8-yl]amino]-2-methylphenyl]methanone; hy-drochloride]: 960 nM.
Take `Cc1cc(Nc2nccn3c(-c4ccc(OC(F)F)cc4)cnc23)ccc1C(=O)N1CCC(N2CCNCC2)CC1` [Example 45, (4-((3-(4-(difluoromethoxy)phenyl)imidazo[1,2-a]pyrazin-8-yl)amino)-2-methylphenyl)(4-(piperazin-1-yl)piperidin-1-yl)methanone hydrochloride]: the IC90 under setting [1] came out at 190 nM.
Consider `Cc1cc(Nc2nccn3c(-c4ccc(O[C@@H](C)C#N)c(F)c4F)cnc23)ccc1C(=O)N1CCN(CCN(C)C)CC1` [Example 240, ((2S)-2-[4-[8-[4-[4-[2-(dimethylamino)ethyl]piperazine-1-carbonyl]-3-methyl-anilino]imidazo[1,2-a]pyrazin-3-yl]-2,3-difluoro-phenoxy]propanenitrile formate], for which, under setting [2], the IC90 is 110 nM.
Turning to `CCc1cc(Nc2nccn3c(-c4ccc(OC)c(F)c4F)cnc23)ccc1C(=O)N1CCN(C(=O)C2CCNCC2)CC1` [Example 494, [4-[[3-(2,3-difluoro-4-methoxyphenyl)imidazo[1,2-a]pyrazin-8-yl]amino]-2-ethylphenyl]-[4-(piperidine-4-carbonyl)piperazin-1-yl]methanone; hydrochloride], under setting [1], the IC90 was found to be 320 nM.
As for `Cc1cc(Nc2nccn3c(-c4ccc(OC(F)F)cc4)cnc23)ccc1C(=O)N1CCN(C(=O)CN)CC1` [Example 37, 2-amino-1-(4-(4-((3-(4-(difluoromethoxy)phenyl)imidazo[1,2-a]pyrazin-8-yl)amino)-2-methylbenzoyl)piperazin-1-yl)ethanone hydrochloride], the IC90 (read-out: ATCC17978 IC90, 90% growth inhibitory concentration, Acinetobacter baumannii ATCC17978, Iso-Sensitest broth, OD 600 nm over 16 h, hydrochloride) was found to be 180 nM.
For `CCc1cc(Nc2nccn3c(-c4ccc(OC)c(F)c4)cnc23)ccc1C(=O)N1CCC(C(=O)O)CC1` [Example 241, 1-(2-Ethyl-4-((3-(3-fluoro-4-methoxyphenyl)imidazo[1,2-a]pyrazin-8-yl)amino)benzoyl)piperidine-4-carboxylic acid], the IC90 under setting [2] is 2200 nM.
Regarding `Cc1cc(Nc2nccn3c(-c4ccc(OC(F)F)cc4)cnc23)ccc1C(=O)N1CCN(C(=O)C2CCNCC2O)CC1` (stereo not drawn) [Example 523, [4-[[3-[4-(difluoromethoxy)phenyl]imi-dazo[1,2-a]pyrazin-8-yl]amino]-2-methylphenyl]-[4-(3-hydroxypiperidine-4-carbonyl)piperazin-1-yl]methanone; hydrochloride], the IC90 under setting [1] worked out at 390 nM.
For the compound `Cc1cc(Nc2nccn3c(-c4ccc(OC(F)F)cc4)cnc23)ccc1C(=O)N1CCN(C(=O)N2CCO[C@@H](CN)C2)CC1` [Example 146, [4-[(2S)-2-(aminomethyl)morpholine-4-carbonyl]piperazin-1-yl]-[4-[[3-[4-(difluoromethoxy)phenyl]imidazo[1,2-a]pyrazin-8-yl]amino]-2-methyl-phenyl]methanone formate], the IC90 under setting [2] amounted to 300 nM.
On the same count and under the same terms, next, `Cc1cc(Nc2nccn3c(-c4ccc(OCc5ccncc5)c(F)c4F)cnc23)ccc1C(=O)N1CCC(CN)CC1` [Example 127, [4-(aminomethyl)-1-piperidyl]-[4-[[3-[2,3-difluoro-4-(4-pyridylmethoxy)phenyl]imidazo[1,2-a]pyrazin-8-yl]amino]-2-methyl-phenyl]methanone formate]: 910 nM; `COc1ccc(-c2cnc3c(Nc4ccc(C(=O)N5CCC(C(=O)O)CC5)c(C)c4)nccn23)cc1F` [Example 2, 1-(4-((3-(3-fluoro-4-methoxyphenyl)imidazo[1,2-a]pyrazin-8-yl)amino)-2-methylbenzoyl)piperidine-4-carboxylic acid]: 1700 nM; `CCc1cc(Nc2nccn3c(-c4ccc(OS(C)(=O)=O)c(F)c4F)cnc23)ccc1C(=O)N1CCN(C(=O)C2CCNCC2)CC1` [Example 451, [4-[8-[3-ethyl-4-[4-(piperidine-4-carbonyl)piperazine-1-carobnyl]anilino]imidazo[1,2-a]pyrazin-3-yl]-2,3-difluorophenyl] methanesulfonate; formic acid]: 2700 nM.
Turning to `Cc1cc(Nc2nccn3c(-c4ccc(OC(F)F)cc4)cnc23)ccc1C(=O)N1CCN(C(=O)N2CCO[C@H](CN)C2)CC1` [Example 496, [4-[(2R)-2-(aminomethyl)morpholine-4-carbonyl]piperazin-1-yl]-[4-[[3-[4-(difluoromethoxy)phenyl]imi-dazo[1,2-a]pyrazin-8-yl]amino]-2-methylphenyl]methanone; for-mic acid], the IC90 under setting [1] amounted to 330 nM.
`Cc1cc(Nc2nccn3c(-c4ccc(OC(F)F)cc4)cnc23)ccc1C(=O)N1CCN(C(=O)N2CCNCC2)CC1` [Example 518, [4-[[3-[4-(difluoromethoxy)phenyl]imi-dazo[1,2-a]pyrazin-8-yl]amino]-2-methylphenyl]-[4-(piperazine-1-carbonyl)piperazin-1-yl]methanone; hydrochloride]: the IC90 under setting [1] is 170 nM.
